Results: US10669296B2, “LXR agonists and uses thereof” (Rgenix, Inc., priority 2014, dated 2020)
pEC50: −log10 of the molar value. Where two headings read alike, the source gives them in different places.

Experiments:
ApoE [1] = test: Pharmacodynamic analysis of ApoE in peripheral blood lymphocytes (qRT-PCR); assay type: in vivo, mouse; details: mice
Method: In Vivo Dosing and Sample Collection: 6-7 week old […] received a single dose of Compound 8 at 52.6 mg/kg, formulated in 2% DMSO/20% Propylene Glycol/78% 0.5% Methylcellulose (400 cp) at a final concentration of 4.62 mg/mL by oral gavage. Bleeds were taken at 0.5 h, 2 h, 4 h, 8 h, 16 h, 24 h and 48 h. Mice were bled twice, the first bleed was drawn submandibular and the second through intracardiac puncture. Blood was collected in Dipotassium EDTA Microtainer tubes (02-669-38, Fisher). To isolate peripheral blood lymphocytes, blood samples were centrifuged at 2000 g for 5 min. After separation of the plasma, Erythrocytes were lysed in 1 mL Erythrocyte Lysis (EL) buffer (79217, Qiagen) and incubation at room temperature for 20 min. Samples were centrifuged at 400 g for 10 min, and peripheral blood lymphocytes washed once in EL buffer, followed by one wash in PBS.
ApoE Gene Expression Analysis by qRT-PCR: RNA was extracted from peripheral blood lymphocytes using the Total RNA Purification Micro Kit (35300, Norgen, Thorold, Canada). 200-300 ng of total RNA was then reverse transcribed into cDNA using the Verso cDNA synthesis Kit (AB-1453B, Fisher Scientific) and 6 ng of the resulting cDNA was mixed with SYBR Green PCR Mater Mix (4385612, Applied Biosystems) and quantitative real-time PCR amplification was performed using an ABI Prism 7900HT Real-Time PCR System (Applied Biosystems, Austin, Tex.). Each PCR reaction was carried out in quadruplicates. Gene expression was normalized to GAPDH, which was used as an endogenous control. Primers used as described in Example 86.
Results: The results of ApoE induction in vivo by compound 8 is shown in Table 9 where Pre-Dose represents endogenous levels of ApoE induction prior to dosing, n is the number of samples analyzed, and values are expressed as fold induction over pre-dose endogenous ApoE levels (normalized to 1.0). Peak induction of compound 8 is >6-fold over background at 4 h.

Cancer cells (MeWo) = test: Matrigel invasion assay; assay type: cell-based; details: 1 μM drug, invasion 24 h
Method: Cancer cells (MeWo) were pre-treated in presence of 1 μM drug or control (DMSO) for 72 h after which cancer cells were switched to serum-starvation in 0.2% FBS DMEM-based media for 16 h in the presence of the drug or control, respectively. Trans-well invasion chambers (354480, BD Biosciences, Bedford, Mass.) were pre-equilibrated in DMEM-based media prior to the beginning of the assay by adding 0.5 ml of starvation media to the top and bottom chambers. After 30 min, the media in the top chamber was removed, and 0.5 ml of media containing 1×10^5 cancer cells in the presence of the drug, was added into each matrigel-coated trans-well insert. Cells were allowed to invade through the matrigel-coated inserts for 24 h at 37° C.

ApoE [2] = test: ApoE gene expression analysis by qRT-PCR in MeWo cancer cells; assay type: cell-based; details: Homo sapiens, MeWo, 48 h; for Emax at 1 µM / Emax at 10 µM: read-out: ApoE gene expression in relation to GW3965 at 1 μM (100%)
Method: Cancer cells (MeWo) were treated in presence of drug or control (DMSO) at indicated concentrations for 48 h. RNA was extracted from whole cell lysates using the Total RNA Purification Kit (17200, Norgen, Thorold, Canada). 600 ng of total RNA was then reverse transcribed into cDNA using the Verso cDNA Synthesis Kit (AB-1453/B, Fisher Scientific). 6 ng of the resulting cDNA was then mixed with SYBR green PCR Master Mix (4309155, Applied Biosystems) and the appropriate primers. Each reaction was performed in quadruplicate, and mRNA expression was quantified by performing real-time PCR amplification using a StepOne Plus Real-Time PCR System (Applied Biosystems). GAPDH was used as an endogenous control for normalization. EC50 values were calculated using Prism6 software and plotting expression values versus drug concentration. The following primers were used: [table] The results are shown in relation to GW3965 ApoE expression at 1 μM (i.e. 100%).

B16F10 melanoma cells = test: In vivo primary tumor growth assay; set-up: species or system mouse; details: B16F10 in C57B16 mice
Method: For primary tumor growth studies, 5×10^4 B16F10 melanoma cells were mixed 1:1 with matrigel and subcutaneously injected into the lower flanks of 6-week old C57B16 mice. Upon the formation of palpable tumors, 4-5 days after tumor cell injection, 10 mice were randomly assigned to groups eating a control diet or a diet supplemented with compound 8 (5 and 25 mg/kg). Tumor volume was calculated as (small diameter)^2×(large diameter)/2 and tumor growth inhibition was measured relative to vehicle control.

Aβ plaque burden = details: mouse model of Alzheimer's disease, Jiang et al., Neuron 2008; cited from earlier work
LXRβ = LXRβ (Homo sapiens (Human), UniProt P55055); test: ligand sensing assay (LiSA), LXRβ; assay type: biochemical; details: ratio of EC50 values
Chain of LXRβ (P55055 whole entry): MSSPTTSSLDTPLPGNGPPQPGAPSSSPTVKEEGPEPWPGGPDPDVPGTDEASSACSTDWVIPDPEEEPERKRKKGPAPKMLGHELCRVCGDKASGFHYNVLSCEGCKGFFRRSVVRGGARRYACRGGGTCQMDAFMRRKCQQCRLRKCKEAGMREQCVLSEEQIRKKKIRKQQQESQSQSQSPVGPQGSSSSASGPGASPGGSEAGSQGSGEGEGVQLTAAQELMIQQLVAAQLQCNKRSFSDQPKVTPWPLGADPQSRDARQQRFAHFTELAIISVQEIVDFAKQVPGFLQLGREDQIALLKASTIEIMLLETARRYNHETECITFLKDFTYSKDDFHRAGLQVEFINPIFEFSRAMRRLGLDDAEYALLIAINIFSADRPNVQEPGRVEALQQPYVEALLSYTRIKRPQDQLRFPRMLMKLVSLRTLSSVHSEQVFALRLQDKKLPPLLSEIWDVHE
Excerpt: As used herein, reference to the activity of an LXR agonist at LXRα and LXRβ refer to the activity as measured using the ligand sensing assay (LiSA) described in Spencer et al. J. Med. Chem. 2001, 44, 886-897, incorporated herein by reference. […] For example, the methods of the invention can be performed using an LXRβ agonist having activity for LXRβ that is at least 3-fold greater than the activity of the agonist for LXRα, or having activity for LXRβ that is at least 10-fold greater than the activity of the agonist for LXRα, or having activity for LXRβ that is at least 100-fold greater than the activity of the agonist for LXRα, or having activity for LXRβ that is at least within 3-fold of the activity of the agonist for LXRα. The term “greater activity” in the LiSA assay refers to a lower EC50.

pEC50 (ApoE [2])	fold greater activity for LXRβ compared to LXRα (LXRβ)	Structure (SMILES)	Fold ApoE Induction Over Pre-Dose Level (+/−S.D.) (ApoE [1]; 0.5 h after single oral dose 52.6 mg/kg)	Fold ApoE Induction Over Pre-Dose Level (+/−S.D.) (ApoE [1]; 2 h after single oral dose 52.6 mg/kg)	Fold ApoE Induction Over Pre-Dose Level (+/−S.D.) (ApoE [1]; 4 h after single oral dose 52.6 mg/kg)	Fold ApoE Induction Over Pre-Dose Level (+/−S.D.) (ApoE [1]; 8 h after single oral dose 52.6 mg/kg)	Fold ApoE Induction Over Pre-Dose Level (+/−S.D.) (ApoE [1]; 16 h after single oral dose 52.6 mg/kg)	Fold ApoE Induction Over Pre-Dose Level (+/−S.D.) (ApoE [1]; 24 h after single oral dose 52.6 mg/kg)	Fold ApoE Induction Over Pre-Dose Level (+/−S.D.) (ApoE [1]; 48 h after single oral dose 52.6 mg/kg)	% of Cells Migrated Compared to Control (Cancer cells (MeWo))	Emax at 1 µM (ApoE [2])	Emax at 10 µM (ApoE [2])	Mean tumor volume (mm3) (+/−S.E.M.) (B16F10 melanoma cells; 5 mg/kg in diet)	Tumor growth inhibition % of control (+/−S.E.M.) (B16F10 melanoma cells; 5 mg/kg in diet)	Mean tumor volume (mm3) (+/−S.E.M.) (B16F10 melanoma cells; 25 mg/kg in diet)	amyloid-beta plaques (Aβ plaque burden)	Emax at 1 µM (ApoE [2]; reference value)
> 6.00		CS(=O)(=O)c1cc(OCCCN(Cc2cccc(C(F)(F)F)c2Cl)CC(c2ccccc2)c2ccccc2)cc(F)c1CO [Compound 8, {4-[3-({[2-chloro-3-(trifluoromethyl)phenyl]methyl}(2,2-diphenylethyl)amino)propoxy]-2-fluoro-6-methanesulfonylphenyl}methanol]	1.3 (+/−0.3) fold	2.7 (+/−0.5) fold	6.3 (+/−1.8) fold	3.8 (+/−2.4) fold	0.3 (+/−0.4) fold	0.4 (+/−0.6) fold	0.1 (+/−0.3) fold	<50%	> 80%	> 80%	686 (+/−97) mm3	13% (+/−12%)	475 (+/−56) mm3		
> 6.52	approximately 6 fold	O=C(O)Cc1cccc(OCCCN(Cc2cccc(C(F)(F)F)c2Cl)CC(c2ccccc2)c2ccccc2)c1 [GW3965, reference compound]								<70%		> 40%				therapeutic reduction of amyloid-beta plaques	100%
